The values that follow come from PubChem BioAssay AID330 (DTP/NCI, 2004).

Several values for one entry are separate records, joined by “and”; a condition that tells them apart may be missing. Equal values may be shown once. Toxic doses and inconclusive results are not listed.

In this assay the test system is P388 leukemia ip, CD2F1 mice, survival T/C. As to the kind of experiment: NCI In Vivo Anticancer Drug Screen. Data for tumor model P388 Leukemia (intraperitoneal) in CD2F1 (CDF1) mice. To be noted: endpoint: median survival time, higher = longer survival. The method, boiled down: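 Mice carrying the transplanted tumor received test compound or vehicle. Survival was recorded in each group, and the value is the treated-group measurement divided by that of the vehicle-treated control group.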

Where [1] appears, read: dose: 12.5 mg/kg/injection, schedule: Q01DX009 (ip), vehicle: water.
[2] abbreviates: dose: 25.0 mg/kg/injection, schedule: Q01DX009 (ip), vehicle: water.
[3] abbreviates: dose: 50.0 mg/kg/injection, schedule: Q01DX009 (ip), vehicle: water.
Setting [4] is: dose: 50.0 mg/kg/injection, schedule: Q01DX009 (ip), vehicle: saline.
Setting [5] is: dose: 100.0 mg/kg/injection, schedule: Q01DX009 (ip), vehicle: saline.
[6] abbreviates: dose: 200.0 mg/kg/injection, schedule: Q01DX009 (ip), vehicle: saline.
Setting [7] is: dose: 50.0 mg/kg/injection, schedule: Q01DX005 (ip), vehicle: Klucel (hydroxypropylcellulose) (HPC).
[8] abbreviates: dose: 100.0 mg/kg/injection, schedule: Q01DX005 (ip), vehicle: Klucel (hydroxypropylcellulose) (HPC).
Setting [9] is: dose: 200.0 mg/kg/injection, schedule: Q01DX005 (ip), vehicle: Klucel (hydroxypropylcellulose) (HPC).
Setting [10] is: dose: 12.5 mg/kg/injection, schedule: Q01DX009 (ip), vehicle: saline with Tween-80.
Setting [11] is: dose: 25.0 mg/kg/injection, schedule: Q01DX009 (ip), vehicle: saline with Tween-80.
The mark [12] stands for this setting: dose: 50.0 mg/kg/injection, schedule: Q01DX009 (ip), vehicle: saline with Tween-80.
[13] abbreviates: dose: 100.0 mg/kg/injection, schedule: Q01DX009 (ip), vehicle: saline with Tween-80.
Where [14] appears, read: dose: 3.12 mg/kg/injection, schedule: Q01DX009 (ip), vehicle: saline with Tween-80.
Where [15] appears, read: dose: 6.25 mg/kg/injection, schedule: Q01DX009 (ip), vehicle: saline with Tween-80.

On to `COc1ccc(CCNc2ccc(OC)c(OC)c2)cc1OC`, for which the T/C under setting [1] is 91 % of control; the T/C under setting [2] was 98 % of control; the T/C under setting [3] is 100 % of control; the T/C (dose: 100.0 mg/kg/injection, schedule: Q01DX009 (ip), vehicle: water) was 95 % of control; the T/C (dose: 200.0 mg/kg/injection, schedule: Q01DX009 (ip), vehicle: water) was 90 % of control.

For the compound `CC([OH2+])CNCCN.CC([OH2+])CNCCN.O=[N+]([O-])[O-].[Cu+2]` (configuration not stated), the T/C under setting [4] was 113 % of control.

Turning to `C=C1C(C(=O)OCC)=NNc2c(C(N)=O)ncn21`, the T/C is 96 % of control (dose: 100.0 mg/kg/injection, schedule: Q04DX002 (ip), vehicle: Klucel (hydroxypropylcellulose) (HPC)); 101 % of control (dose: 200.0 mg/kg/injection, schedule: Q04DX002 (ip), vehicle: Klucel (hydroxypropylcellulose) (HPC)); 104 % of control (dose: 400.0 mg/kg/injection, schedule: Q04DX002 (ip), vehicle: Klucel (hydroxypropylcellulose) (HPC)).

For `NC(=O)c1ccccc1NC(=O)CCCC(=O)O`, the T/C by setting is: under setting [4], 98 % of control; under setting [5], 108 % of control; under setting [6], 97 % of control.

Regarding `N#Cc1c(O)c(-c2ccccc2)c(=O)n2c1[nH]c1ccccc12`, the T/C is, setting by setting: under setting [7], 101 % of control; under setting [8], 104 % of control; under setting [9], 113 % of control.

As for `O=C1C(=O)c2cccc([N+](=O)[O-])c2-c2ccccc21`, the T/C reads like this: (dose: 12.5 mg/kg/injection, schedule: Q01DX005 (ip), vehicle: saline with Tween-80) 104 % of control and 106 % of control; (dose: 25.0 mg/kg/injection, schedule: Q01DX005 (ip), vehicle: saline with Tween-80) 101 % of control and 115 % of control; (dose: 50.0 mg/kg/injection, schedule: Q01DX005 (ip), vehicle: saline with Tween-80) 107 % of control and 118 % of control; (dose: 100.0 mg/kg/injection, schedule: Q01DX005 (ip), vehicle: saline with Tween-80) 104 % of control (2×) and 95 % of control.

Consider `CCOC(=O)/C=C/N=[N+]=[N-]`, for which the T/C is 102 % of control (dose: 60.0 mg/kg/injection, schedule: Q01DX005 (ip), vehicle: saline with Tween-80); 105 % of control (dose: 120.0 mg/kg/injection, schedule: Q01DX005 (ip), vehicle: saline with Tween-80); 106 % of control (dose: 240.0 mg/kg/injection, schedule: Q01DX005 (ip), vehicle: saline with Tween-80).

As to `Oc1c(Cl)cc(Cl)cc1/C=N/NC(=S)Nc1cc(C(F)(F)F)cc(C(F)(F)F)c1`, the T/C is, setting by setting: (dose: 12.5 mg/kg/injection, schedule: Q01DX009 (ip), vehicle: olive oil, sesame oil, peanut oil) 105 % of control; (dose: 25.0 mg/kg/injection, schedule: Q01DX009 (ip), vehicle: olive oil, sesame oil, peanut oil) 107 % of control; (dose: 50.0 mg/kg/injection, schedule: Q01DX009 (ip), vehicle: olive oil, sesame oil, peanut oil) 120 % of control; (dose: 50.0 mg/kg/injection, schedule: Q01DX009 (oral), vehicle: saline with Tween-80) 92 % of control; (dose: 100.0 mg/kg/injection, schedule: Q01DX009 (ip), vehicle: olive oil, sesame oil, peanut oil) 86 % of control; (dose: 100.0 mg/kg/injection, schedule: Q01DX009 (oral), vehicle: saline with Tween-80) 108 % of control. In addition, the T/C reads like this: (dose: 200.0 mg/kg/injection, schedule: Q01DX009 (oral), vehicle: saline with Tween-80) 99 % of control; (dose: 400.0 mg/kg/injection, schedule: Q01DX009 (oral), vehicle: saline with Tween-80) 90 % of control.

As for `C=C1C(=O)OC2/C=C(/C)C(OC(C)=O)CC(O)/C(C)=C\C(OC(=O)/C(C)=C\C)C12` (configuration not stated), the T/C reads like this: under setting [10], 100 % of control; under setting [11], 117 % of control; under setting [12], 118 % of control; under setting [13], 114 % of control.

`Cc1ccc(N=C(N)N/N=C/c2ccc3c(c2)Cc2ccccc2-3)cc1`: the T/C was 106 % of control (dose: 25.0 mg/kg/injection, schedule: Q04DX002 (ip), vehicle: saline with Tween-80) and 107 % of control (dose: 50.0 mg/kg/injection, schedule: Q04DX002 (ip), vehicle: saline with Tween-80).

In the case of `O=C1CSC(=S)N1CCCN1CCOCC1`, the T/C runs as follows: under setting [12], 104 % of control; under setting [13], 106 % of control; (dose: 200.0 mg/kg/injection, schedule: Q01DX009 (ip), vehicle: saline with Tween-80) 101 % of control.

As for `Nc1nc2ncc(CCCl)cc2c(=O)[nH]1`, the T/C runs as follows: under setting [7], 102 % of control; under setting [8], 123 % of control; under setting [9], 107 % of control.

On to `CC(C)(C)N1CC1CNC(=O)C(=O)NCC1CN1C(C)(C)C` (configuration not stated), for which the T/C by setting is: under setting [14], 165 % of control; under setting [15], 194 % of control and 203 % of control; under setting [10], 256 % of control and 277 % of control; under setting [11], 177 % of control.

Take `CN(C/C=C/CN(C)C(=S)Nc1ccccc1)C(=S)Nc1ccccc1`: the T/C was 95 % of control (dose: 12.5 mg/kg/injection, schedule: Q01DX009 (ip), vehicle: saline); 106 % of control (dose: 25.0 mg/kg/injection, schedule: Q01DX009 (ip), vehicle: saline); 91 % of control (dose: 25.0 mg/kg/injection, schedule: Q01DX009 (ip), vehicle: suspension in saline); 90 % of control under setting [4]; 86 % of control and 87 % of control (dose: 50.0 mg/kg/injection, schedule: Q01DX009 (ip), vehicle: suspension in saline).

Take `Cc1ccc(S(=O)(=O)NN=c2c3ccccc3c3nc4ccccc4nc3c3ccccc23)cc1`: the T/C under setting [7] was 90 % of control and the T/C under setting [8] is 98 % of control.

`COP(=O)(O)OC.[U]`: the T/C under setting [14] was 118 % of control and the T/C under setting [15] was 118 % of control.

`CC(CNc1nc(Nc2ccc(Cl)c(Cl)c2)nc(C(Cl)(Cl)Cl)n1)N(C)C` (configuration not stated): the T/C was 109 % of control (dose: 3.13 mg/kg/injection, schedule: Q01DX009 (ip), vehicle: distilled water + Tween-80); 90 % of control (dose: 3.13 mg/kg/injection, schedule: Q01DX009 (ip), vehicle: water); 118 % of control (dose: 6.25 mg/kg/injection, schedule: Q01DX009 (ip), vehicle: distilled water + Tween-80); 99 % of control (dose: 6.25 mg/kg/injection, schedule: Q01DX009 (ip), vehicle: water); 98 % of control and 120 % of control (dose: 12.5 mg/kg/injection, schedule: Q01DX009 (ip), vehicle: distilled water + Tween-80); 99 % of control under setting [1]. Further, the T/C is, setting by setting: (dose: 25.0 mg/kg/injection, schedule: Q01DX009 (ip), vehicle: distilled water + Tween-80) 113 % of control and 94 % of control; under setting [2], 101 % of control; (dose: 50.0 mg/kg/injection, schedule: Q01DX009 (ip), vehicle: distilled water + Tween-80) 109 % of control and 94 % of control; under setting [3], 101 % of control.

In the case of `CC(C)Oc1nc(N2CCNCC2)nc2c1CCC2`, the T/C (dose: 15.0 mg/kg/injection, schedule: Q01DX005 (ip), vehicle: saline) is 101 % of control; the T/C (dose: 30.0 mg/kg/injection, schedule: Q01DX005 (ip), vehicle: saline) is 94 % of control; the T/C (dose: 60.0 mg/kg/injection, schedule: Q01DX005 (ip), vehicle: saline) was 101 % of control.

Regarding `Cc1ccc(OS(=O)(=O)NC(=O)NCc2ccco2)cc1`, the T/C runs as follows: under setting [4], 92 % of control; under setting [5], 101 % of control; under setting [6], 105 % of control.

For `CCOC(=O)COc1cc2c(cc1C(C)c1ccc(OCc3ccccc3)c(OC)c1)OCO2` (configuration not stated), the T/C is, setting by setting: under setting [7], 87 % of control; under setting [8], 90 % of control.

On to `Nc1nc(Cl)c2nnn(C3CC(O)C(CO)C3)c2n1` (configuration not stated), for which the T/C is 116 % of control (dose: 6.25 mg/kg/injection, schedule: Q01DX005 (ip), vehicle: Klucel (hydroxypropylcellulose) (HPC)); 112 % of control (dose: 12.5 mg/kg/injection, schedule: Q01DX005 (ip), vehicle: Klucel (hydroxypropylcellulose) (HPC)); 119 % of control (dose: 25.0 mg/kg/injection, schedule: Q01DX005 (ip), vehicle: Klucel (hydroxypropylcellulose) (HPC)); 110 % of control under setting [7].
